According to the supplement of paper PMC10307832:

Legend:
Experiment in all cases: relative viability (nuclei count vs DMSO), 5 days (fraction); higher = more cells survive
[1] = compound: CN1C=C(C2=CC=CC=C21)/C=C\3/C4=C(C=CC=N4)NC3=O + COc1cc2c(Oc3ccc(NC(=O)C4(C(=O)Nc5ccc(F)cc5)CC4)cc3F)ccnc2cc1OCCCN1CCOCC1 [Foretinib] (partner 0.25 µM)
Summary of the method: (§1)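 Lung cancer cell lines in 1536-well plates got either a single drug or a fixed anchor-drug dose together with five library-drug doses (not always all listed) in √10 steps, by pin tool, on the day after seeding. Nuclei were counted after 5 days, and relative viability is the treated-to-vehicle ratio of nuclei counts. Values are medians of duplicate plates.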

Trametinib + Lapatinib = compound: CC(=O)Nc1cccc(-n2c(=O)n(C3CC3)c(=O)c3c(Nc4ccc(I)cc4F)n(C)c(=O)c(C)c32)c1 [Trametinib] + CS(=O)(=O)CCNCc1ccc(-c2ccc3ncnc(Nc4ccc(OCc5cccc(F)c5)c(Cl)c4)c3c2)o1 [Lapatinib] (partner 2 µM)
Summary of the method: as §1

[2] = compound: CN1C=C(C2=CC=CC=C21)/C=C\3/C4=C(C=CC=N4)NC3=O + CC(C)C[C@H](NC(=O)[C@H](Cc1ccccc1)NC(=O)c1cnccn1)B(O)O [Bortezomib] (partner 0.002 µM)
Summary of the method: as §1

Trametinib + Palbociclib = compound: CC(=O)Nc1cccc(-n2c(=O)n(C3CC3)c(=O)c3c(Nc4ccc(I)cc4F)n(C)c(=O)c(C)c32)c1 [Trametinib] + CC(=O)c1c(C)c2cnc(Nc3ccc(N4CCNCC4)cn3)nc2n(C2CCCC2)c1=O [Palbociclib] (partner 0.5 µM)
Summary of the method: as §1

Row | Cell Line | relative viability ([1]; first compound 0.02 µM) | relative viability ([1]; first compound 0.06325 µM) | relative viability ([1]; first compound 0.2 µM) | relative viability ([1]; first compound 0.6325 µM) | relative viability ([1]; first compound 2 µM) | relative viability (Trametinib + Lapatinib; first compound 0.0025 µM) | relative viability (Trametinib + Lapatinib; first compound 0.007906 µM) | relative viability (Trametinib + Lapatinib; first compound 0.025 µM) | relative viability (Trametinib + Lapatinib; first compound 0.07906 µM) | relative viability (Trametinib + Lapatinib; first compound 0.25 µM) | relative viability ([2]; first compound 0.02 µM) | relative viability ([2]; first compound 0.06325 µM) | relative viability ([2]; first compound 0.2 µM) | relative viability ([2]; first compound 0.6325 µM) | relative viability ([2]; first compound 2 µM) | relative viability (Trametinib + Palbociclib; first compound 0.0025 µM) | relative viability (Trametinib + Palbociclib; first compound 0.007906 µM) | relative viability (Trametinib + Palbociclib; first compound 0.025 µM) | relative viability (Trametinib + Palbociclib; first compound 0.07906 µM) | relative viability (Trametinib + Palbociclib; first compound 0.25 µM)
1 | IA-LM | 1.28 | 1.01 | 1.12 | 1.19 | 1.23 | 0.251 | 0.31 | 0.101 | 0.136 | 0.0905 | 1 | 0.873 | 0.554 | 0.768 | 0.696 |  |  |  |  | 
2 | NCI-H1793 | 0.877 | 0.815 | 0.682 | 0.601 | 0.659 | 0.478 | 0.531 | 0.397 | 0.395 | 0.352 |  |  |  |  |  | 0.277 | 0.242 | 0.225 | 0.213 | 0.192
3 | ChaGo-K-1 | 0.921 | 0.911 | 0.828 | 0.861 | 0.918 |  |  |  |  |  | 0.902 | 0.94 |  | 0.987 | 0.979 | 0.926 | 0.778 | 0.912 | 0.852 | 0.75
4 | NCI-H1944 | 0.89 | 0.874 |  | 0.826 | 0.77 | 0.76 | 0.632 | 0.588 | 0.493 | 0.396 |  |  |  |  |  | 0.316 | 0.246 | 0.223 | 0.207 | 0.163
5 | SW 900 | 0.961 | 0.702 |  | 0.866 | 0.723 |  |  |  |  |  |  |  |  |  |  | 0.56 | 0.49 | 0.483 | 0.457 | 0.383
6 | NCI-H441 | 0.943 | 0.772 | 0.967 | 1.02 | 0.984 |  |  |  |  |  | 0.744 |  | 0.545 | 0.602 | 0.774 | 0.154 | 0.172 | 0.132 | 0.147 | 0.132
7 | NCI-H1623 | 0.838 | 0.878 | 0.701 | 0.712 | 0.755 |  |  |  |  |  |  |  |  |  |  |  |  |  |  | 
8 | LCLC-103H | 0.735 | 0.685 | 0.813 | 0.802 | 0.858 |  |  |  |  |  | 0.951 | 0.984 | 0.994 | 1.22 | 1.11 | 0.484 | 0.44 | 0.483 | 0.468 | 0.507
9 | SK-MES-1 | 0.795 | 0.668 | 0.96 | 0.875 | 0.865 | 0.447 | 0.39 | 0.352 | 0.362 | 0.344 |  |  |  |  |  | 0.358 | 0.357 | 0.319 | 0.354 | 0.26
10 | LK-2 |  |  |  | 1.23 | 1.41 | 0.797 | 0.758 | 0.822 | 0.711 | 0.375 |  |  |  |  |  | 0.551 | 0.603 | 0.704 | 0.738 | 0.223
11 | NCI-H358 | 0.693 | 0.622 | 0.815 | 0.637 | 0.687 | 0.38 | 0.376 | 0.309 | 0.295 | 0.328 |  |  |  |  |  | 0.133 | 0.122 | 0.147 | 0.129 | 0.117
12 | EBC-1 | 0.0992 | 0.108 | 0.0997 | 0.0962 | 0.0995 | 0.189 | 0.199 | 0.189 | 0.225 | 0.213 | 0.473 | 0.524 | 0.51 | 0.572 | 0.494 |  |  |  |  | 
13 | NCI-H1703 | 0.345 | 0.354 | 0.311 | 0.347 | 0.349 |  | 1.09 | 0.887 | 0.96 | 0.859 | 0.407 | 0.401 | 0.258 | 0.41 | 0.356 |  |  |  |  | 
14 | NCI-H1395 | 0.889 | 0.942 | 0.864 | 0.992 | 0.868 | 1.05 | 0.869 | 0.834 | 0.907 | 0.406 |  |  |  |  |  | 0.56 | 0.562 | 0.517 | 0.567 | 0.489
15 | NCI-H1563 | 1.04 | 0.897 | 0.955 | 0.943 | 0.901 | 0.973 | 0.937 | 0.808 | 0.84 | 0.61 | 1.05 | 0.827 | 0.753 | 0.838 | 0.852 |  |  |  |  | 
16 | NCI-H1299 | 1.09 | 1.1 | 1.16 | 1.07 | 1.02 | 1.01 | 0.994 | 0.901 | 0.87 | 0.555 | 1.05 | 0.957 | 0.965 | 1.06 | 0.988 |  |  |  |  | 
17 | NCI-H596 | 0.963 | 0.89 | 0.871 | 0.742 | 0.855 | 0.918 | 0.817 | 0.807 | 0.833 | 0.412 | 0.838 | 1.17 | 1.03 | 1.07 | 1.02 |  |  |  |  | 
18 | NCI-H2170 | 1.02 | 1.03 | 1.03 | 0.94 | 1.04 | 0.311 | 0.258 |  | 0.261 | 0.246 |  |  |  |  |  | 0.4 | 0.419 |  | 0.399 | 0.342
19 | A549 | 1.03 | 0.97 | 1.04 | 1.13 | 1.16 | 0.749 | 0.667 | 0.618 | 0.499 | 0.0742 |  |  |  |  |  |  |  |  |  | 
20 | NCI-H522 |  |  |  |  |  |  |  |  |  |  |  |  |  |  |  | 1.01 | 0.936 | 0.693 | 0.859 | 0.668
21 | NCI-H1648 |  |  |  |  |  |  |  |  |  |  |  |  |  |  |  | 0.251 | 0.284 | 0.278 | 0.336 | 0.303
22 | NCI-H2342 | 1.15 | 0.927 | 1.05 | 0.914 | 1.13 |  |  |  |  |  |  |  |  |  |  | 0.48 | 0.511 | 0.425 | 0.446 | 0.477
23 | Calu-6 | 0.818 | 0.893 | 0.727 | 0.779 | 0.834 | 0.962 | 0.779 | 0.566 | 0.237 | 0.165 | 0.985 | 0.923 | 0.87 | 0.946 | 1.04 |  |  |  |  | 
